Conditions: 343.15 K, Liquid, Vibrating tube method

CCCCCCCC(=O)OCC(COC(=O)CCCCCCC)(COC(=O)CCCCCCC)COC(=O)CCCCCCC [pentaerythritol tetraoctanoate]
Conditions	mass density [kg/m3]
4105.1 kPa	929.1
4132.4 kPa	929.2
4136.6 kPa	929.1
4140.2 kPa	929.1
4142.5 kPa	929
4144.7 kPa	929.2
4148 kPa	929.2
4149.4 kPa	929
4149.6 kPa	929
4163.9 kPa	929.2
4189.2 kPa	929.1
4213.5 kPa	929.1
4238.2 kPa	929.2
4268.5 kPa	929.1
4295 kPa	929.3
4321.4 kPa	929.2
4348.4 kPa	929.2
4373.8 kPa	929.1
4394.2 kPa	929.2
4418.5 kPa	929.1
4438.6 kPa	929.2
4459 kPa	929.3
4483.8 kPa	929.4
4504.7 kPa	929.3
4525.8 kPa	929.4
4546.8 kPa	929.4
4573.1 kPa	929.3
4596.8 kPa	929.5
4619 kPa	929.5
4641.5 kPa	929.4
4713.3 kPa	929.5
4740.6 kPa	929.4
4763.8 kPa	929.5
4787 kPa	929.6
4811.1 kPa	929.6
4839.6 kPa	929.6
4864.5 kPa	929.5
4889.8 kPa	929.7
4915.8 kPa	929.8
4945.5 kPa	929.6
4970.5 kPa	929.8
4996.2 kPa	929.6
5026.3 kPa	929.7
5052.8 kPa	929.8
5079.6 kPa	929.8
5112.2 kPa	929.7
5139.3 kPa	929.8
5167 kPa	929.8
5189.5 kPa	929.8
5228.6 kPa	929.8
5257.5 kPa	929.9
5286.4 kPa	929.8
5321 kPa	930
5350.7 kPa	930
5380.5 kPa	929.9
5410.7 kPa	929.9
5447.9 kPa	929.9
5480.3 kPa	930
5514 kPa	930.1
5545.6 kPa	930.2
5572.5 kPa	930.2
5593.9 kPa	930.1
5619.7 kPa	930.1
5642.1 kPa	930.2
5664.3 kPa	930.2
5686.4 kPa	930.2
5712.7 kPa	930.3
5735.2 kPa	930.2
5757.8 kPa	930.3
5785.1 kPa	930.2
5808.1 kPa	930.2
5832 kPa	930.3
5855.9 kPa	930.3
5884.4 kPa	930.4
5908.6 kPa	930.4
5933.3 kPa	930.4
5959.2 kPa	930.5
5984.1 kPa	930.3
6013.9 kPa	930.4
6039.1 kPa	930.4
6064.3 kPa	930.5
6090.1 kPa	930.4
6121 kPa	930.5
6147.5 kPa	930.5
6174.6 kPa	930.5
6205.9 kPa	930.5
6232.5 kPa	930.6
6260.2 kPa	930.7
6288.7 kPa	930.6
6316.5 kPa	930.6
6348.8 kPa	930.7
6376.3 kPa	930.6
6404.7 kPa	930.6
6439.7 kPa	930.7
6468.8 kPa	930.7
6497.8 kPa	930.7
6532.7 kPa	930.8
6563.4 kPa	930.8
6593.5 kPa	930.9
6624.3 kPa	930.8
6662.3 kPa	930.8
6694.9 kPa	930.9
6726.4 kPa	930.9
6757.3 kPa	930.9
6788.9 kPa	931.1
6826.4 kPa	931
6858.7 kPa	931.1
6891.5 kPa	931
6930.9 kPa	931.2
6964.4 kPa	931
6998.3 kPa	931.1
7038.9 kPa	931.2
7073.6 kPa	931.2
7109 kPa	931.2
7146.6 kPa	931.3
7184.3 kPa	931.3
7220.4 kPa	931.2
7264.4 kPa	931.2
7301.6 kPa	931.4
7339.6 kPa	931.5
7378.1 kPa	931.3
7424.8 kPa	931.3
7463.5 kPa	931.5
7503.2 kPa	931.5
7535.8 kPa	931.5
7575 kPa	931.6
7614.7 kPa	931.5
7673.1 kPa	931.6
7715 kPa	931.7
7765.2 kPa	931.6
7808 kPa	931.8
7853.1 kPa	931.7
7898.8 kPa	931.7
7950.2 kPa	931.8
7984.6 kPa	931.8
8150.9 kPa	931.9
8189.7 kPa	932
8222.6 kPa	932
8255.6 kPa	932
8295.8 kPa	932.1
8329.6 kPa	932.1
8363.2 kPa	932.1
8515 kPa	932.1
8550.2 kPa	932.2
8585.9 kPa	932.3
8629.7 kPa	932.3
8666.6 kPa	932.3
8703.3 kPa	932.4
